Laboratory results: US8084602B2, “Porphyrin derivatives and their use in photodynamic therapy” (Destiny Pharma Limited, priority 2002, dated 2011)
Where two headings read alike, the source gives them in different places.

How the values were obtained:
[1] = system: Escherichia coli (strain ATCC 25922); assay: Initial screening: growth inhibition after white light illumination; format: cell-based; conditions: Escherichia coli
Method: (§1) The toxic effects of exemplary compounds of the invention against two bacterial strains, the Gram negative bacterium Escherichia coli (strain ATCC 25922) and the Gram positive bacterium Staphylococcus aureus (methicillin-resistant strain ATTC BAA-44), were evaluated by measuring the extent of growth inhibition (bacteriostatic effect) and growth […] (cytocidal effect) in the dark and upon light exposure. Initial compound screening was undertaken using white light [390-740 nm] (150 mW/cm^2) for various timepoints of a concentration of 3 μM (see Table 1). Further experiments were undertaken on those compounds identified from this initial screen using a light source emitting light at a wavelength between 417-420 nm at 15.2 mW/cm^2, 13.68 J/cm^2 (Waldmann Eclairage SA, France) (see Table 20.
(§2) The following protocol was used for the initial screening of the exemplary compounds (Table 1) (see Reddi et al., 2002, Photochem. Photobiol. 75(5):462-470): • (i) E. coli and S. aureus cells were grown overnight on brain heart infusion agar, resuspended in brain heart infusion broth, harvested by centrifugation (3000 g for 15 minutes) and washed once with phosphate buffered saline (PBS) at pH 7.4 consisting 2.7 mM KCl and 0.14 M NaCl. • (ii) The cells were then resuspended in PBS to an optical density at 650 nm of 0.7, which corresponds to a density of 10^8 to 10^9 cells/ml. • (iii) Next, the cells were incubated in PBS in the dark for 5 minutes with 3.0 μM of the compound to be tested. • (iv) After dark incubation, cells were illuminated with white light (wavelength: 390 to 740 nm) (150 mW/cm^2) for up to 30 minutes. During illumination, the cells were kept at 37° C. and magnetically stirred. • (v) Finally, treated and untreated (control) cells were diluted in brain heart infusion broth and maintained at […] while the absorbance of the suspension at 650 nm was monitored at predetermined time points for determining growth curves.
(§3) The percent of growth inhibition in the treated cells was calculated by the following equation: [1−(Ax−A0)/(Ac−A0)]×100 where Ax Ac are the absorbances measured after 3 hours incubation, for the treated and control cell suspensions, respectively, and A0 represents the initial absorbance.

[2] = system: Staphylococcus aureus (methicillin-resistant strain ATTC BAA-44); assay: as above; format: cell-based; conditions: Staphylococcus aureus
Method: as §1, §2, §3

S. aureus ATCC BAA-44 = assay: Photodynamic activity against MRSA on ex vivo porcine skin; format: cell-based, Staphylococcus aureus; conditions: 10 μM applied 10 minutes, 15 minutes irradiation, mean of three target areas
Method: Excised porcine skin was cut into 3(4)×3(4) cm^2 pieces under sterile conditions and incubated in 70% ethanol for 5 minutes to reduce background of colonised bacteria. After three washing steps in PBS, the skin pieces were fixed in petri dishes with Hepes-Agar. The epidermis (stratum corneum) was then inoculated with S. aureus ATCC BAA-44 (˜10^8, Volume: 100 μl) and the skin surface dried under laminar flow cabinet until visible dry. The regions of interest were determined using a “pap” pen (1 cm^2 diameter). A sterile solution of Compound 10 (10 μM) was applied onto the skin for 10 minutes. Post application, the ex vivo porcine skin was placed under the Waldmann light source 236 and illuminated for 15 min (15.2 mW/cm^2, 13.7 J/cm^2). A colony forming unit assay was performed to determine viable bacterial cell number immediately after irradiation using a sterile cotton rod to remove bacteria from the stratum corneum. The sterile cotton rod was moistened in sampling solution (0.1% Tween80 in 0.0075 M phosphate buffer pH 7.9) before swabbing the skin surface (3 times) and vortexed in sampling solution before undertaking serial dilutions to determine the bacterial recovery.

[3] = Photostability (photobleaching); format: physicochemical; conditions: 30 minutes illumination
Description: A bespoke light source capable of delivering light of an appropriate wavelength (417 nm) was developed to activate the test compounds (Waldmann light source 236). […] It consists of a light box (493 mm length×278 mm width×93.3 mm height) where the samples to be tested are placed on the top surface of the light box and illuminated from below.
The photostability of the exemplary compounds was investigated using standard photodynamic procedures. […] The solution was illuminated for various periods: 10, 20 and 30 minutes. After each predetermined illumination period, the absorbance at 404 nm corresponding to the maximum absorption peak of the compound was measured. Parallel experiments were undertaken where the absorbance of Compound 10 solutions that had been kept in the dark for the same time periods as the illumination time periods were measured. Over the 30 minutes period of illumination a small loss in the absorbance value at 404 nm was observed (see FIG. 10A).
The susceptibility of the Compound 10 to photobleaching when subjected to a light at a higher fluence rate (150 mW/cm^2; i.e. ten times that used normally) was investigated. With this illumination system, the solution was kept in a quartz cuvette during illumination while an equivalent solution was kept in the dark.

CN(C)CCC[N+](C)(C)CCCOc1ccc(-c2c3nc(cc4ccc([nH]4)c(-c4ccc(OCCC[N+](C)(C)CCCN(C)C)cc4)c4nc(cc5ccc2[nH]5)C=C4)C=C3)cc1.[Cl-].[Cl-] [Compound 8, 5,15-bis-(4-{3-[(3-Dimethylamino-propyl)-dimethylammonio]-propyloxy}-phenyl)-porphyrin dichloride]
inhibition at 3 µM ([1]; ATCC25922, 5 min, read-out: Growth inhibition (%), E. coli, 5 min incubation, illumination time 5 min): 100%
inhibition at 3 µM ([1]; ATCC25922, read-out: Growth inhibition (%), E. coli, 5 min incubation, illumination time 0 min): 23%
inhibition at 3 µM ([1]; ATCC25922, read-out: Growth inhibition (%), E. coli, 5 min incubation, illumination time 1 min): 69%
inhibition at 3 µM ([1]; ATCC25922, read-out: Growth inhibition (%), E. coli, 5 min incubation, illumination time 10 min): 100%
inhibition at 3 µM ([1]; ATCC25922, read-out: Growth inhibition (%), E. coli, 5 min incubation, illumination time 15 min): 100%
inhibition at 3 µM ([1]; ATCC25922, read-out: Growth inhibition (%), E. coli, 5 min incubation, illumination time 30 min): 100%
inhibition at 3 µM ([2]; BAA44, 5 min, read-out: Growth inhibition (%), S. aureus, 5 min incubation, illumination time 5 min): 100%
inhibition at 3 µM ([2]; BAA44, read-out: Growth inhibition (%), S. aureus, 5 min incubation, illumination time 0 min): 80%
inhibition at 3 µM ([2]; BAA44, read-out: Growth inhibition (%), S. aureus, 5 min incubation, illumination time 1 min): 99%
inhibition at 3 µM ([2]; BAA44, read-out: Growth inhibition (%), S. aureus, 5 min incubation, illumination time 10 min): 100%
inhibition at 3 µM ([2]; BAA44, read-out: Growth inhibition (%), S. aureus, 5 min incubation, illumination time 15 min): 100%
inhibition at 3 µM ([2]; BAA44, read-out: Growth inhibition (%), S. aureus, 5 min incubation, illumination time 30 min): 100%

C[N+](C)(C)CCCOc1ccc(-c2c3nc(cc4ccc([nH]4)c(-c4ccc(OCCC[N+](C)(C)C)cc4)c4nc(cc5ccc2[nH]5)C=C4)C=C3)cc1.[Cl-].[Cl-] [Compound 10, 5,15-bis-[4-(3-Trimethylammonio-propyloxy)-phenyl]-porphyrin dichloride]
growth reduction (S. aureus ATCC BAA-44): 3.2 log10
loss in the absorbance value at 404 nm ([3]; 10 μM in phosphate-buffered saline/ethanol, blue light 15 mW/cm^2): small loss
reduction of absorbance caused by photobleaching ([3]; 10 μM, 150 mW/cm^2): 15-20%
